Results on eight molecules are retold here after PubChem BioAssay (NCI).

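The compound was tested at five concentrations on cells cultured in 96-well plates, with a 48-hour exposure period. GI50 is the concentration that inhibits growth by half. Definition used: TGI = concentration required for complete inhibition of growth.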 A value given as a limit tells only on which side of the number the result lay.

Some test systems named below: OVCAR-5 ovarian; HCT-15 colon; SK-MEL-5 melanoma; MALME-3M melanoma; NCI/ADR-RES ovarian; HCT-116 colon; T-47D breast; U251 CNS; A498 renal; MOLT-4 leukemia.
Holding throughout (assay): growth of human tumour cells (NCI), 48 h

Regarding `CCN(Cc1ccc(OC)cc1)c1ccc(CO)c(Cl)c1`, the GI50 with OVCAR-5 ovarian is 0.162 µM; in the test with HCT-15 colon, 12.2 µM; in the test on SK-MEL-5 melanoma, 2.66 µM; in the test on MALME-3M melanoma it was 17 µM; in the test on NCI/ADR-RES ovarian it was 15 µM; with HCT-116 colon, 0.0875 µM. Also, the GI50 is 0.115 µM in the test with T-47D breast, 0.966 µM in the test on U251 CNS, 0.0306 µM in the test on A498 renal and 21.6 µM in the test with MOLT-4 leukemia. Also, the TGI in the test on OVCAR-5 ovarian is 0.636 µM; with HCT-15 colon, above 100 µM; in the test with SK-MEL-5 melanoma, 18.6 µM; in the test on MALME-3M melanoma it was 38.4 µM; in the test on NCI/ADR-RES ovarian it was 49.6 µM; with HCT-116 colon it was 10.8 µM. Further, the TGI in the test on T-47D breast was 0.589 µM; in the test on U251 CNS, 26.6 µM; in the test with A498 renal, 0.168 µM; with MOLT-4 leukemia, 59.7 µM.
On to `O=[N+]([O-])c1ccc(C2=NCCO2)cc1`, for which the GI50 in the test with OVCAR-5 ovarian, in the test on HCT-15 colon, with SK-MEL-5 melanoma, in the test with MALME-3M melanoma, in the test on NCI/ADR-RES ovarian and in the test with HCT-116 colon was above 100 µM in each case. Also, the GI50 in the test on T-47D breast, in the test on U251 CNS, in the test on A498 renal and with MOLT-4 leukemia was above 100 µM throughout. Also, the TGI in the test on OVCAR-5 ovarian, in the test with HCT-15 colon, with SK-MEL-5 melanoma, with MALME-3M melanoma, with NCI/ADR-RES ovarian and in the test with HCT-116 colon was above 100 µM throughout. The TGI in the test on T-47D breast, in the test on U251 CNS, in the test on A498 renal and in the test with MOLT-4 leukemia was above 100 µM throughout.
For `O=C1C=C(Nc2ccccc2)c2ccccc2C1=O`, the GI50 in the test on OVCAR-5 ovarian was 1.85 µM; in the test on HCT-15 colon it was 1.77 µM; in the test with SK-MEL-5 melanoma it was 1.7 µM; in the test on MALME-3M melanoma, 1.64 µM; with NCI/ADR-RES ovarian it was 2.48 µM; in the test on HCT-116 colon, 2.15 µM. Besides, the GI50 with T-47D breast was 3.17 µM; in the test on U251 CNS, 1.8 µM; with A498 renal, 1.96 µM; in the test on MOLT-4 leukemia, 2.87 µM. For the same molecule, the TGI turned out to be 3.33 µM in the test on OVCAR-5 ovarian; 3.98 µM in the test with HCT-15 colon; 3.12 µM in the test on SK-MEL-5 melanoma; 3.07 µM with MALME-3M melanoma; 8.82 µM with NCI/ADR-RES ovarian; 5.49 µM in the test with HCT-116 colon. The TGI in the test with T-47D breast is 9.88 µM; in the test on U251 CNS, 4.6 µM; with A498 renal, 5.26 µM; in the test with MOLT-4 leukemia, 9.47 µM.
For `O=C(CCCc1ccc(N(CCCl)CCCl)cc1)NCc1ccccc1`, the GI50 was 33.1 µM in the test with OVCAR-5 ovarian; 13.3 µM in the test on HCT-15 colon; 8.14 µM in the test on SK-MEL-5 melanoma; 13.2 µM in the test on MALME-3M melanoma; 6.88 µM in the test with NCI/ADR-RES ovarian; 4.57 µM in the test on HCT-116 colon. Moreover, the GI50 is 8.04 µM in the test on T-47D breast, 6.6 µM in the test with U251 CNS, 2.59 µM with A498 renal and 2.89 µM with MOLT-4 leukemia. Besides, the TGI was above 100 µM with OVCAR-5 ovarian; above 100 µM in the test on HCT-15 colon; 22.7 µM with SK-MEL-5 melanoma; 37.6 µM with MALME-3M melanoma; 60.7 µM with NCI/ADR-RES ovarian; 20.7 µM with HCT-116 colon. The TGI in the test with T-47D breast stood at 87.1 µM; in the test with U251 CNS, 43.4 µM; in the test with A498 renal, 20.8 µM; with MOLT-4 leukemia, 11.6 µM.
On to `CC(C)=CCC/C(C)=C/CC/C(C)=C/CSC[C@H](NC(=O)CCCCCN1CCN(C)CC1)C(=O)NC1CCCCCC1`, for which the GI50 was 1.84 µM in the test on OVCAR-5 ovarian; 1.94 µM with HCT-15 colon; 1.77 µM in the test with SK-MEL-5 melanoma; 1.94 µM with MALME-3M melanoma; 3.89 µM with NCI/ADR-RES ovarian; 1.71 µM in the test with HCT-116 colon. Also, the GI50 is 2.22 µM in the test with T-47D breast, 1.73 µM in the test with U251 CNS, 3.76 µM in the test with A498 renal and 2.69 µM in the test with MOLT-4 leukemia. Also, the TGI in the test on OVCAR-5 ovarian is 3.6 µM; in the test with HCT-15 colon it was 3.93 µM; with SK-MEL-5 melanoma it was 3.18 µM; with MALME-3M melanoma, 3.56 µM; with NCI/ADR-RES ovarian, 14.6 µM; in the test on HCT-116 colon it was 3.16 µM. In addition, the TGI came out at 6.45 µM in the test on T-47D breast, 3.19 µM in the test on U251 CNS, 16.7 µM in the test with A498 renal and 7.48 µM with MOLT-4 leukemia.
With `Cc1c2cnccc2c(C)c2c1c1ccccc1n2CCOC(=O)c1ccccc1`, the TGI in the test with OVCAR-5 ovarian amounted to 69 µM; in the test on HCT-15 colon, 59.2 µM; in the test with SK-MEL-5 melanoma it was 38.9 µM; with MALME-3M melanoma it was 28.8 µM; with NCI/ADR-RES ovarian, 33 µM; in the test on HCT-116 colon it was 28.2 µM. Also, the TGI was above 100 µM with T-47D breast, 44.1 µM in the test on U251 CNS, 32.2 µM in the test with A498 renal and 25.4 µM in the test on MOLT-4 leukemia.
For the molecule `CC1CCCCCC(=O)c2c(O)cc(O)cc2CC(=O)O1` (stereo not given), the TGI with OVCAR-5 ovarian, in the test on HCT-15 colon, in the test with SK-MEL-5 melanoma, with MALME-3M melanoma, in the test with NCI/ADR-RES ovarian and in the test with HCT-116 colon was above 100 µM in each case. In addition, the TGI in the test on T-47D breast, in the test with U251 CNS, in the test with A498 renal and in the test on MOLT-4 leukemia was above 100 µM in each case.
In the case of `Cn1cc(C2=C(c3ccsc3)C(=O)NC2=O)c2ccccc21`, the GI50 is above 25 µM with OVCAR-5 ovarian; above 22.7 µM in the test with HCT-15 colon; above 25 µM with SK-MEL-5 melanoma; above 25 µM in the test with MALME-3M melanoma; above 25 µM with NCI/ADR-RES ovarian; above 25 µM in the test on HCT-116 colon. Moreover, the GI50 in the test on T-47D breast was 7.97 µM; in the test on U251 CNS, above 25 µM; with A498 renal, 12.1 µM; in the test with MOLT-4 leukemia, above 25 µM. Further, the TGI in the test with OVCAR-5 ovarian, in the test with HCT-15 colon, with SK-MEL-5 melanoma, with MALME-3M melanoma, with NCI/ADR-RES ovarian and in the test with HCT-116 colon was above 25 µM in each case. Moreover, the TGI in the test with T-47D breast, in the test on U251 CNS, in the test on A498 renal and in the test with MOLT-4 leukemia was above 25 µM each time.
